From US9776995B2, “Bicyclic sulfonamide compounds as sodium channel inhibitors” (AMGEN INC., priority 2013, dated 2017)
pIC50: −log10 of the molar value.

Each molecule was assayed against Nav 1.7 (Homo sapiens (Human), UniProt Q15858) (assay: Nav 1.7 in vitro PX assay (PatchXpress whole cell voltage clamp)). Details: not given.
Format: cell-based
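Further: holding potential set for 20 to 50% inactivation, sodium current evoked by a 20 ms step to −10 mV, peak current inhibition read after compound exposure, 3–5 cells per concentration.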

Sequence of Nav 1.7 (Q15858 whole entry): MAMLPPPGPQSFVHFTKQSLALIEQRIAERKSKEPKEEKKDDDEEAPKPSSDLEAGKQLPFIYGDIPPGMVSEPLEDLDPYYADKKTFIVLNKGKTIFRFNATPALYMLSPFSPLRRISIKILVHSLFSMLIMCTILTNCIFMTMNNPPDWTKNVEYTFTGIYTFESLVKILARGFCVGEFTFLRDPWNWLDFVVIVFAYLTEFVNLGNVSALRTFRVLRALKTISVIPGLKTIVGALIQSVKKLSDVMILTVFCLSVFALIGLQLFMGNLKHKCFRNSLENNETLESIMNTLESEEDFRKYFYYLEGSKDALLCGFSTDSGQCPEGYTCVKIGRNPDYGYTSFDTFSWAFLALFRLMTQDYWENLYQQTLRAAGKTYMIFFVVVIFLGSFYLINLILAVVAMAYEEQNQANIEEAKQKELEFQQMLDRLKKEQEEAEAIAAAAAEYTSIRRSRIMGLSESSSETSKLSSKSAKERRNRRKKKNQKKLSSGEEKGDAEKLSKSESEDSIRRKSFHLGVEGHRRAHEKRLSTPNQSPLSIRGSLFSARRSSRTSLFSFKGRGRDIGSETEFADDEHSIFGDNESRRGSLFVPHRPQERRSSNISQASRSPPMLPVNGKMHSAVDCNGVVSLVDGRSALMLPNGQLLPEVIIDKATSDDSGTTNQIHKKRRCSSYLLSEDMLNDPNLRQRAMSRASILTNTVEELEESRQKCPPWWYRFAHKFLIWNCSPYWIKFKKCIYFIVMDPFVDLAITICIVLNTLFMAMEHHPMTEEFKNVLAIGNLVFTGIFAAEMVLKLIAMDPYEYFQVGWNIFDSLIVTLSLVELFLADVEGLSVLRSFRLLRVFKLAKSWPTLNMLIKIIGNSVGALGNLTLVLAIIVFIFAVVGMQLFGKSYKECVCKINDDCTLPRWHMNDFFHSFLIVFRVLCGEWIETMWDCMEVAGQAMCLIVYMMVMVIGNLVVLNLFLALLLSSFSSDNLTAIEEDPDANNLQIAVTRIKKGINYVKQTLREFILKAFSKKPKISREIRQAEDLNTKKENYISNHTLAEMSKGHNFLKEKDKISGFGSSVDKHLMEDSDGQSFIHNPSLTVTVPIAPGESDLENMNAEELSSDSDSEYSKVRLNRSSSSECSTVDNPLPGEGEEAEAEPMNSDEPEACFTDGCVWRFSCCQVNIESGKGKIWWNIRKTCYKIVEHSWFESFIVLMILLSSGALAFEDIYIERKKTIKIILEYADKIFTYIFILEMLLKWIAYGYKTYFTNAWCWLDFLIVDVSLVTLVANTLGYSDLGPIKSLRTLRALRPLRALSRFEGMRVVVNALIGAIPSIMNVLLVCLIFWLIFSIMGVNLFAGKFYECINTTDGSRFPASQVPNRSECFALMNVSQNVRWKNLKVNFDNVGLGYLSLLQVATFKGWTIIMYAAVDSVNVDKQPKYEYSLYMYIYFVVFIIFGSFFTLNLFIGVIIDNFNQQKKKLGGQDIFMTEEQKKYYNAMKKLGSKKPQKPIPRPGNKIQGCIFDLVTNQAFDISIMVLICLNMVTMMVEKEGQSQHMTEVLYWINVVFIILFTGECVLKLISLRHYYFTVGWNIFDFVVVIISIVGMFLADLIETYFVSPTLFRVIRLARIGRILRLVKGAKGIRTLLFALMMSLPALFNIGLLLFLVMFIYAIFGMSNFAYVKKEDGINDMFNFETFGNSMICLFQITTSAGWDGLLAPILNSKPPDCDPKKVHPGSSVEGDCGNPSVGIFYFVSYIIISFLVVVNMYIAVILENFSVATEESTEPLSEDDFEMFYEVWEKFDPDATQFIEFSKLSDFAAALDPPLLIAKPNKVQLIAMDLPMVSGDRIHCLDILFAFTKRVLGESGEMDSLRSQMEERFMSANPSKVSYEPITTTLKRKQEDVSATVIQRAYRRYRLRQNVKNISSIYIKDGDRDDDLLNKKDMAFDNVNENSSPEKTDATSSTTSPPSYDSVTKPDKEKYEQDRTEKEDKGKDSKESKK

SMILES	pIC50
COc1cc(C(F)(F)F)ccc1C1c2ccc(S(=O)(=O)Nc3ncns3)cc2CCN1C(C)=O (stereo not drawn) [Example 51, 2-ACETYL-1-(2-METHOXY-4-(TRIFLUOROMETHYL)PHENYL)-N-(1,2,4-THIADIAZOL-5-YL)-1,2,3,4-TETRAHYDROISOQUINOLINE-6-SULFONAMIDE]	6.65
COc1cc(C(F)(F)F)c(Cl)cc1-c1ncnc2cc(S(=O)(=O)Nc3ccon3)ccc12 [Example 59, 4-(5-CHLORO-2-METHOXY-4-(TRIFLUOROMETHYL)PHENYL)-N-(ISOXAZOL-3-YL)QUINAZOLINE-7-SULFONAMIDE]	6.74

Same assay, conditions: HEK 293 cells stably transfected with human Nav1.7; PatchXpress; partially inactivated state

SMILES	pIC50
COc1cc(-c2cccc(F)c2)c(Cl)cc1-c1c(C)ncc2cc(S(=O)(=O)Nc3ccon3)ccc12 (atropisomer, axis not shown; (P)) [Example 318, (P)-4-(2-chloro-3′-fluoro-5-methoxy-4-biphenylyl)-N-3-isoxazolyl-3-methyl-7-isoquinolinesulfonamide]	5.86
COc1cc(-c2cccc(F)c2)c(Cl)cc1-c1c(C)cnc2cc(S(=O)(=O)Nc3ccon3)ccc12 (atropisomer, axis not shown; (P)) [Example 331, (P)-4-(2-chloro-3′-fluoro-5-methoxy-[1,1′-biphenyl]-4-yl)-N-(isoxazol-3-yl)-3-methylquinoline-7-sulfonamide]	4.98
CCc1cnc2cc(S(=O)(=O)Nc3ccon3)ccc2c1-c1cc(Cl)c(-c2cccc(F)c2)cc1OC (atropisomer, axis not shown; (P)) [Example 333, (P)-4-(2-chloro-3′-fluoro-5-methoxy-[1,1′-biphenyl]-4-yl)-3-ethyl-N-(isoxazol-3-yl)quinoline-7-sulfonamide]	6.23
COc1cc(-c2cccc(F)c2)c(Cl)cc1-c1c(C#N)cnc2cc(S(=O)(=O)Nc3ccon3)ccc12 (atropisomer, axis not shown; (P)) [Example 335, (P)-4-(2-chloro-3′-fluoro-5-methoxy-[1,1′-biphenyl]-4-yl)-3-cyano-N-(isoxazol-3-yl)quinoline-7-sulfonamide]	6.95
COc1cc(-c2cccc(F)c2)c(Cl)cc1-c1c(O)cnc2cc(S(=O)(=O)Nc3ccon3)ccc12 (atropisomer, axis not shown; (P)) [Example 338, (P)-4-(2-chloro-3′-fluoro-5-methoxy-[1,1′-biphenyl]-4-yl)-3-hydroxy-N-(isoxazol-3-yl)quinoline-7-sulfonamide]	7.39
COc1cc(-c2cccc(F)c2)c(Cl)cc1-c1c(OC)cnc2cc(S(=O)(=O)Nc3ccon3)ccc12 (atropisomer, axis not shown; (P)) [Example 340, (P)-4-(2-chloro-3′-fluoro-5-methoxy-[1,1′-biphenyl]-4-yl)-N-(isoxazol-3-yl)-3-methoxyquinoline-7-sulfonamide]	7.08
COc1cc(-c2cccc(F)c2)c(Cl)cc1-c1c(C)nnc2cc(S(=O)(=O)Nc3ccon3)ccc12 (atropisomer, axis not shown; (P)) [Example 442, (P)-4-(2-chloro-3′-fluoro-5-methoxy-[1,1′-biphenyl]-4-yl)-N-(isoxazol-3-yl)-3-methylcinnoline-7-sulfonamide]	6.60
CCc1nnc2cc(S(=O)(=O)Nc3ccon3)ccc2c1-c1cc(Cl)c(-c2cccc(F)c2)cc1OC (atropisomer, axis not shown; (P)) [Example 444, (P)-4-(2-chloro-3′-fluoro-5-methoxy-[1,1′-biphenyl]-4-yl)-3-ethyl-N-(isoxazol-3-yl)cinnoline-7-sulfonamide]	5.93
COc1cc(-c2cccc(C(F)(F)F)c2)c(F)cc1-c1c2ccc(S(=O)(=O)Nc3ccon3)cc2cc(=O)n1C (atropisomer, axis not shown; (P)) [Example 551, (P)-1-(2-fluoro-5-methoxy-3′-(trifluoromethyl)-4-biphenylyl)-N-3-isoxazolyl-2-methyl-3-oxo-2,3-dihydro-6-isoquinolinesulfonamide]	7.55

Same assay, conditions: PatchXpress (PX)

pIC50	SMILES
5.96	COc1cc(-c2cccc(F)c2)ccc1[C@@H]1c2ccc(S(=O)(=O)Nc3ccon3)cc2CCN1C(C)=O [Example 53-A, (S)-2-ACETYL-1-(3′-FLUORO-3-METHOXY-[1,1′-BIPHENYL]-4-YL)-N-(ISOXAZOL-3-YL)-1,2,3,4-TETRAHYDROISOQUINOLINE-6-SULFONAMIDE]
6.31	COc1cc(-c2cccc(F)c2)c(Cl)cc1-c1nccc2cc(S(=O)(=O)Nc3cscn3)ccc12 [Example 54, 1-(2-CHLORO-3′-FLUORO-5-METHOXY-[1,1′-BIPHENYL]-4-YL)-N-(THIAZOL-4-YL)ISOQUINOLINE-6-SULFONAMIDE]
7.49	COc1cc(-c2cccc(F)c2)c(Cl)cc1-c1nnc(OC)c2cc(S(=O)(=O)Nc3ccon3)ccc12 [Example 55, 1-(2-CHLORO-3′-FLUORO-5-METHOXY-[1,1′-BIPHENYL]-4-YL)-N-(ISOXAZOL-3-YL)-4-METHOXYPHTHALAZINE-6-SULFONAMIDE]
7.81	COc1cc(-c2ccc(Cl)c(C)c2)c(Cl)cc1-c1nncc2cc(S(=O)(=O)Nc3ccon3)ccc12 [Example 245, 1-(2,4′-dichloro-5-methoxy-3′-methyl-4-biphenylyl)-N-3-isoxazolyl-6-phthalazinesulfonamide]
6.61	COc1cc(Cl)c(C)cc1-c1ncnc2cc(S(=O)(=O)Nc3ccon3)ccc12 [Example 247, 4-(4-chloro-2-methoxy-5-methylphenyl)-N-3-isoxazolyl-7-quinazolinesulfonamide]
6.93	COc1cc(-c2ccc(Cl)c(C)c2)c(C)cc1-c1nccc2cc(S(=O)(=O)Nc3ccon3)ccc12 [Example 253, 1-(4′-chloro-5-methoxy-2,3′-dimethyl-4-biphenylyl)-N-3-isoxazolyl-6-isoquinolinesulfonamide]
6.54	COc1cc(-c2cccc(F)c2)c(Cl)cc1-c1nccc2cc(S(=O)(=O)Nc3ccsn3)ccc12 [Example 254, 1-(2-chloro-3′-fluoro-5-methoxy-4-biphenylyl)-N-3-isothiazolyl-6-isoquinolinesulfonamide]
7.07	COc1cc(-c2cc(F)cc(F)c2)c(Cl)cc1-c1nncc2cc(S(=O)(=O)Nc3ccsn3)ccc12 [Example 256, 1-(2-chloro-3′,5′-difluoro-5-methoxy-4-biphenylyl)-N-3-isothiazolyl-6-phthalazinesulfonamide]

The remaining lines, values behind:

SMILES	pIC50
COc1cn(-c2cc(F)cc(F)c2)c(=O)cc1-c1nccc2cc(S(=O)(=O)Nc3ccon3)ccc12 [Example 56, 1-(1-(3,5-DIFLUOROPHENYL)-5-METHOXY-2-OXO-1,2-DIHYDROPYRIDIN-4-YL)-N-(ISOXAZOL-3-YL)ISOQUINOLINE-6-SULFONAMIDE]	4.93
COc1cc(C(F)(F)F)c(C)cc1-c1nccc2cc(S(=O)(=O)Nc3ccon3)ccc12 [Example 60, N-(ISOXAZOL-3-YL)-1-(2-METHOXY-5-METHYL-4-(TRIFLUOROMETHYL)PHENYL)ISOQUINOLINE-6-SULFONAMIDE]	6.72
COc1cc(-c2cc(F)cc(F)c2)c(C)cc1-c1ncnc2cc(S(=O)(=O)Nc3ccon3)ccc12 [Example 61, 4-(3′,5′-DIFLUORO-5-METHOXY-2-METHYL-[1,1′-BIPHENYL]-4-YL)-N-(ISOXAZOL-3-YL)QUINAZOLINE-7-SULFONAMIDE]	7.30
COc1cc(-c2ccc(F)c(F)c2)c(C)cc1-c1nccc2cc(S(=O)(=O)Nc3ccon3)ccc12 [Example 62, 1-(3′,4′-DIFLUORO-5-METHOXY-2-METHYL-[1,1′-BIPHENYL]-4-YL)-N-(ISOXAZOL-3-YL)ISOQUINOLINE-6-SULFONAMIDE]	7.42
COc1cc(-c2ccc(C)c(Cl)c2)c(Cl)cc1-c1nncc2cc(S(=O)(=O)Nc3ccon3)ccc12 [Example 246, 1-(2,3′-dichloro-5-methoxy-4′-methyl-4-biphenylyl)-N-3-isoxazolyl-6-phthalazinesulfonamide]	7.76
COc1cc(Cl)c(C)cc1-c1nccc2cc(S(=O)(=O)Nc3ccon3)ccc12 [Example 248, 1-(4-chloro-2-methoxy-5-methylphenyl)-N-3-isoxazolyl-6-isoquinolinesulfonamide]	6.73
COc1cc(C(F)(F)F)c(Cl)cc1-c1nccc2cc(S(=O)(=O)Nc3ccon3)ccc12 [Example 249, 1-(5-chloro-2-methoxy-4-(trifluoromethyl)phenyl)-N-3-isoxazolyl-6-isoquinolinesulfonamide]	6.65
COc1cc(C(F)F)c(C)cc1-c1nccc2cc(S(=O)(=O)Nc3ccon3)ccc12 [Example 250, 1-(4-(difluoromethyl)-2-methoxy-5-methylphenyl)-N-3-isoxazolyl-6-isoquinolinesulfonamide]	6.14
COc1cc(C(F)F)c(C2CC2)cc1-c1nccc2cc(S(=O)(=O)Nc3ccon3)ccc12 [Example 251, 1-(5-cyclopropyl-4-(difluoromethyl)-2-methoxyphenyl)-N-3-isoxazolyl-6-isoquinolinesulfonamide]	6.37
COc1cc(-c2ccc(Cl)c(C)c2)c(C)cc1-c1ncnc2cc(S(=O)(=O)Nc3ccon3)ccc12 [Example 252, 4-(4′-chloro-5-methoxy-2,3′-dimethyl-4-biphenylyl)-N-3-isoxazolyl-7-quinazolinesulfonamide]	7.49
COc1cc(-c2ccc(Cl)c(C)c2)c(Cl)cc1-c1nncc2cc(S(=O)(=O)Nc3ccsn3)ccc12 [Example 255, 1-(2,4′-dichloro-5-methoxy-3′-methyl-4-biphenylyl)-N-3-isothiazolyl-6-phthalazinesulfonamide]	6.49

Same assay, conditions: in-vitro Nav 1.7 PX (PatchXpress)

pIC50	SMILES
4.89	COc1cc(-c2cccc(F)c2)c(Cl)cc1-c1cn(C)c2cc(S(=O)(=O)Nc3ccon3)ccc12 [Example 57, 3-(2-CHLORO-3′-FLUORO-5-METHOXY-[1,1′-BIPHENYL]-4-YL)-N-(ISOXAZOL-3-YL)-1-METHYL-1H-INDOLE-6-SULFONAMIDE]
7.47	COc1cc(-c2ccc(F)c(C3CC3)c2)c(C)cc1-c1ncnc2cc(S(=O)(=O)Nc3ccon3)ccc12 [Example 63, 4-(3′-CYCLOPROPYL-4′-FLUORO-5-METHOXY-2-METHYL-[1,1′-BIPHENYL]-4-YL)-N-(ISOXAZOL-3-YL)QUINAZOLINE-7-SULFONAMIDE]
7.04	COc1nc(-c2cc(F)cc(F)c2)c(C#N)cc1-c1cccc2cc(S(=O)(=O)Nc3ccncn3)ccc12 [Example 64]
